Reference: patent US11931365B2, “Use of PPAR-delta agonists in the treatment of disease” (Reneo Pharmaceuticals, Inc., priority 2022, dated 2024)

Key:
hPPARγ = target: T1, hPPARγ (Homo sapiens, UniProt P37231); test: PPAR receptor transactivation assay (UAS-bla Gal4, HEK293); assay type: cell-based
T1 construct: expressed in transfected cells; host or cells: Jump-In GripTite HEK293
Experimental: Compound I was tested on all three human PPAR subtypes (hPPAR): hPPARα, hPPARγ, and hPPARδ in vitro assays testing for such activity.
Compound I was tested on all three human PPAR subtypes (hPPAR): hPPARα, hPPARγ, and hPPARδ. All assays were repeated at least three times for each subtype.
The genes of interest were synthesized and cloned into an appropriate Jump-In™ retargeting vector following the User Guide of the Jump-in™ T-REx™ HEK293 Retargeting Kit (ThermoFisher Catalog No A15008). For example, the vector will be used to transfect and retarget the Jump-In™ HEK293 GripTite™ parental cell line. Stable pools will be antibiotic-selected for about 21 days and tested for target gene expression by functional assay.
Jump-In™ GripTite™ HEK293 parental cells were plated at 60-80% confluency in a T-75 flask in growth medium without antibiotics and transfected with a 1:1 ratio of expression construct and R4 integrase expression construct (20 μg DNA total) using Lipofectamine® LTX (50 μL) and PLUS™ Reagent (20 μL). Following a 48 hours incubation, cells were selected with 600 μg/mL Geneticin® and 10 μg/mL Blasticidin for ˜21 days in growth medium.
Jump-In™ GripTite™ HEK293 rPPAR Alpha, Delta or Gamma UAS-bla-Gal4 cell pools were plated in a 384-well plate format (20,000 cells per well) in OptiMeM without FBS in replicates (n=4). Cells were allowed to adhere for 8 hours before addition of Compound I (1 mM top concentration, 3-fold dilutions, 10-point titration). After 16 hours, the cells were loaded with LiveBLAzer®, a fluorescent BLA substrate that gives a blue/green readout of expressing/non-expressing cells, respectively. The blue/green readout was measured on a fluorescent plate reader (Tecan Safire II).

LXRβ = LXRβ (Homo sapiens, UniProt P55055); test: Nuclear receptor activity
LXRβ, sequence (P55055 whole entry): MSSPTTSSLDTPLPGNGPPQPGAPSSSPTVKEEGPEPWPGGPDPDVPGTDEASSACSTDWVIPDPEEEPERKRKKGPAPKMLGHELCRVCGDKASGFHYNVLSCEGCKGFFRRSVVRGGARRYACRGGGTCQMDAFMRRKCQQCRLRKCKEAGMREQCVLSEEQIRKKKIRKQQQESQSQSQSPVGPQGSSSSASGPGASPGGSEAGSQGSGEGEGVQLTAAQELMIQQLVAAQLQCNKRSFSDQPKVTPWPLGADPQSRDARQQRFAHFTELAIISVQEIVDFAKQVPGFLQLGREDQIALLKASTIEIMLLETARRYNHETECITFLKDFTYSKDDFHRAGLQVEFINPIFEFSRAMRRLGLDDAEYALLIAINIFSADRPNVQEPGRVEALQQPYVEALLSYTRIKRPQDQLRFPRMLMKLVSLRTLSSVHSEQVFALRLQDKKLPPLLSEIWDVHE

T1 sequence (P37231 whole entry, the tested form may be a part): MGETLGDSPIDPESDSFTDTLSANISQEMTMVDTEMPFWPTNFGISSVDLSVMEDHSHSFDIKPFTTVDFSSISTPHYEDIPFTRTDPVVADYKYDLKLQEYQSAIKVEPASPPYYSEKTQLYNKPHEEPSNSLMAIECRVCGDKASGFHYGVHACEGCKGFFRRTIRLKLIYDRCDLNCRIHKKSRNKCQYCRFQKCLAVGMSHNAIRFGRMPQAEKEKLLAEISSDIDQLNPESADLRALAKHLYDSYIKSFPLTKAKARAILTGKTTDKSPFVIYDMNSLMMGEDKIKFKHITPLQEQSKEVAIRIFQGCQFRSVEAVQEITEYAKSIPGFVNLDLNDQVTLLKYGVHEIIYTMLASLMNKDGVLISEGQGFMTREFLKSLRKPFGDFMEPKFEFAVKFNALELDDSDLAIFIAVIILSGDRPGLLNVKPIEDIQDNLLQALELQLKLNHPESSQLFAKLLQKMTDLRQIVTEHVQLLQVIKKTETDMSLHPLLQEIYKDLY

agonist type (hPPARγ; PPARγ): partial agonist
EC50 (hPPARγ; human PPARγ): > 10 µM
activity on nuclear receptor LXRβ (LXRβ): did not show any
Structure (SMILES): Cc1cc(OC/C=C(/c2ccc(F)cc2)c2ccc(C#CCN3CCOCC3)cc2)ccc1OCC(=O)O [Compound I, (E)-2-(4-((3-(4-fluorophenyl)-3-(4-(3-morpholinoprop-1-yn-1-yl)phenyl)allyl)oxy)-2-methylphenoxy)acetic acid]
